The results in this text go back to patent US11634412B2, “3-phosphoglycerate dehydrogenase inhibitors and uses thereof” (Raze Therapeutics, Inc., priority 2016, dated 2023).

For test [1], the target named is T1, Full length (FL) 3-Phosphoglycerate Dehydrogenase (PHGDH) (Homo sapiens, UniProt O43175).
T1 construct: Full length (FL) 3-Phosphoglycerate Dehydrogenase (PHGDH) Diaphorase coupled assay (500 uM NAD)
T1 sequence (O43175 1-533): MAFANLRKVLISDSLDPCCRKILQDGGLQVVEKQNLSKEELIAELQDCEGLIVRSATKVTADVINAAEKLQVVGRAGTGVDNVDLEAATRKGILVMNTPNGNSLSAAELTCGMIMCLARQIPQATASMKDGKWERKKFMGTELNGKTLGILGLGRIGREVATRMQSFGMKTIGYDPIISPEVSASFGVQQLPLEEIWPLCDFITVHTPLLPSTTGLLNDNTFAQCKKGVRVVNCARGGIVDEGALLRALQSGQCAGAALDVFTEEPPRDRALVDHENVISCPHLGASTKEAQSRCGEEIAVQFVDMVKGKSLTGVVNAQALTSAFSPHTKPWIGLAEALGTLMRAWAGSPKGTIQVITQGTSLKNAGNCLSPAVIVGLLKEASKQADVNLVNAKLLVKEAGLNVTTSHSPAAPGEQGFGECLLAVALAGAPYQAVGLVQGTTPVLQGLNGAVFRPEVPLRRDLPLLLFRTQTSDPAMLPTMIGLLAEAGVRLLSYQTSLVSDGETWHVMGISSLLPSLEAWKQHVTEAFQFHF
The test can be described thus: Full length (FL) PHGDH Diaphorase coupled assay (20 uM NAD). Format: biochemical. The note with it: full-length PHGDH 10 nM, 30° C. 60 minutes, resorufin fluorescence. The method, then:
PHGDH activity was determined by detecting the NADH produced during the reaction. Diaphorase was used to catalyze the oxidation of NADH with the concomitant reduction of resazurin to the fluorescent product resorufin. Resorufin fluorescence quantitatively reflected the production of NADH by the PHGDH reaction. To drive the forward reaction, two enzymes in the serine synthesis pathway subsequent to PHGDH, Phosphoserine aminotransferase (PSAT1) and phosphoserine phosphatase (PSPH) were also added to the reaction.

In test [2] the target is T1, Full length (FL) 3-Phosphoglycerate Dehydrogenase (PHGDH). In words: Full length (FL) PHGDH Diaphorase coupled assay (500 uM NAD). Format: biochemical. The note with it: full-length PHGDH 5 nM, 30° C. 60 minutes, resorufin fluorescence.

In the case of `Cn1c(C(=O)NC2(c3ccc(C#N)cc3)CCOC2)cc2c(Cl)c(Cl)ccc21` (racemic) [I-134 e143, 4,5-dichloro-N-[3-(4-cyanophenyl)tetrahydrofuran-3-yl]-1-methyl-indole-2-carboxamide], the IC50 (as a rule, the concentration at which inhibition is half-maximal) in test [1] lay within 1 to 5 µM.

Compound `Cn1c(C(=O)NC2(c3ccccc3)CCN(S(=O)(=O)Nc3cnccn3)CC2)cc2c(Cl)c(Cl)ccc21` [I-152 e3] displayed an IC50 in test [1] of 1 to 5 µM. The compound `Cn1c(C(=O)NC2(c3ccc(Br)cc3)CCOC2)cc2c(Cl)c(Cl)ccc21` (racemic) [I-135 e142, (±)-N-[3-(4-Bromophenyl)tetrahydrofuran-3-yl]-4,5-dichloro-1-methyl-indole-2-carboxamide] displayed an IC50 in test [1] of 1 to 5 µM. As to `CC(=O)NS(=O)(=O)N1CCC(NC(=O)c2cc3c(Cl)c(Cl)ccc3n2C)(c2cccc(N)c2)CC1` [I-145 e13], the IC50 in test [1] lay in the range of 5 to 10 µM. For `Cn1c(C(=O)NC2(c3cccc(C#N)c3)CCOC2)cc2c(Cl)c(Cl)ccc21` (racemic) [I-143 e139, (±)-4,5-dichloro-N-[3-(3-cyanophenyl)tetrahydrofuran-3-yl]-1-methyl-indole-2-carboxamide], the IC50 in test [1] fell in the range of 1 to 5 µM.

For the compound `Cn1c(C(=O)NC2(c3ccc(CC(=O)O)cc3)CCOC2)cc2c(Cl)c(Cl)ccc21` (racemic) [I-129 e149, (±)-2-[4-[3-[(4,5-Dichloro-1-methyl-indole-2-carbonyl)amino]tetrahydrofuran-3-yl]phenyl]acetic acid], the IC50 in test [1] lay within 0.001 to 1 µM.

Compound `CNC(=O)NS(=O)(=O)N1CCCC(NC(=O)c2cc3c(Cl)c(Cl)ccc3n2C)(c2cccc(C(=O)O)c2)C1` (racemic) [I-139 e14] displayed an IC50 in test [1] of 1 to 5 µM.

`CN1CCC(NC(=O)c2cc3c(Cl)c(Cl)ccc3n2C)(c2ccc(C(=O)O)cc2)C1` (racemic) [I-130 e17]: in test [1], the IC50 fell in the range of 0.001 to 1 µM. In turn, `CC(=O)NS(=O)(=O)N1CCC(NC(=O)c2cc3c(Cl)c(Cl)ccc3n2C)(c2cccc(C(=O)O)c2)CC1` [I-151 e10] had an IC50 in test [1] of 1 to 5 µM. In turn, `Cn1c(C(=O)NC2(c3cccc(C(N)=O)c3)CCOC2)cc2c(Cl)c(Cl)ccc21` (racemic) [I-141 e140, (±)-N-[3-(3-Carbamoylphenyl)tetrahydrofuran-3-yl]-4,5-dichloro-1-methyl-indole-2-carboxamide] displayed an IC50 in test [1] of 1 to 5 µM. In the case of `CNC(=O)NS(=O)(=O)N1CCCC(NC(=O)c2cc3c(Cl)c(Cl)ccc3n2C)(c2ccccc2)C1` (racemic) [I-146 e6], the IC50 in test [1] lay in the range of 5 to 10 µM.

In turn, `Cn1c(C(=O)NC2(c3ccc(C(=O)O)cc3)CCOC2)cc2c(Cl)c(Cl)ccc21` (racemic) [I-137 e141, (±)-4-[3-[(4,5-Dichloro-1-methyl-indole-2-carbonyl)amino]tetrahydrofuran-3-yl]benzoic acid] yielded an IC50 in test [1] of 0.001 to 1 µM. `Cn1c(C(=O)N[C@@]2(c3ccc(C(=O)O)cc3)CCOC2)cc2c(Cl)c(Cl)ccc21` (single isomer, unassigned; peak 2) [I-132 or I-133 e147 peak 2] yielded an IC50 in test [1] of 0.001 to 1 µM. The compound `CC(=O)NS(=O)(=O)N1CC(NC(=O)c2cc3c(Cl)c(Cl)ccc3n2C)(c2ccccc2)C1` [I-148 e9] showed an IC50 in test [1] of 5 to 10 µM. Take `CC(=O)NS(=O)(=O)N1CCC(NC(=O)c2cc3c(Cl)c(Cl)ccc3n2C)(c2cccc(C#N)c2)CC1` [I-154 e4]: the IC50 in test [1] was 5 to 10 µM. In test [1], `CNC(=O)NS(=O)(=O)N1CCCC(NC(=O)c2cc3c(Cl)c(Cl)ccc3n2C)(c2cccc(CO)c2)C1` (racemic) [I-138 e16] registered an IC50 of 5 to 10 µM. Consider `CC(=O)Nc1cccc(C2(NC(=O)c3cc4c(Cl)c(Cl)ccc4n3C)CCN(C(C)=O)CC2)c1` [I-150 e5], for which the IC50 in test [1] was 5 to 10 µM. Compound `Cn1c(C(=O)NC2(c3ccc(C(=O)O)cc3)CCOC2)cc2c(Cl)c(Cl)ccc21` (racemic) [I-136 e145, (±)-4-[3-[(4,5-Dichloro-1-methyl-indole-2-carbonyl)amino]tetrahydrofuran-3-yl]benzoic acid] returned an IC50 in test [1] of 0.001 to 1 µM. Regarding `Cn1c(C(=O)NC2(c3ccc(C(N)=O)cc3)CCOC2)cc2c(Cl)c(Cl)ccc21` (racemic) [I-131 e144, (±)-N-[3-(4-Carbamoylphenyl)tetrahydrofuran-3-yl]-4,5-dichloro-1-methyl-indole-2-carboxamide], the IC50 in test [1] is 1 to 5 µM. As to `Cn1c(C(=O)NC2(c3ccc(-c4nnn[nH]4)cc3)CCOC2)cc2c(Cl)c(Cl)ccc21` (racemic) [I-128 e148, (±)-4,5-Dichloro-1-methyl-N-[3-[4-(1H-tetrazol-5-yl)phenyl]tetrahydro-furan-3-yl]indole-2-carboxamide], in test [1], the IC50 was in the range of 0.001 to 1 µM.

`CC(=O)NS(=O)(=O)N1CCC(NC(=O)c2cc3c(Cl)c(Cl)ccc3n2C)(c2ccccc2)C1` (racemic) [I-147 e8]: in test [1], the IC50 was in the range of 1 to 5 µM.

For `CNC(=O)NS(=O)(=O)N1CCCC(NC(=O)c2cc3c(Cl)c(Cl)ccc3n2C)(c2ccc(C(=O)O)cc2)C1` (racemic) [I-140 e15], the IC50 in test [1] was in the range of 0.001 to 1 µM. Turning to `Cn1c(C(=O)N[C@]2(c3ccc(C(=O)O)cc3)CCOC2)cc2c(Cl)c(Cl)ccc21` (single isomer, unassigned; peak 1) [I-133 or I-132 e146 peak 1], in test [1], the IC50 is 0.001 to 1 µM. In test [1], `CNC(=O)NS(=O)(=O)N1CCCC(NC(=O)c2cc3c(Cl)c(Cl)ccc3n2C)(c2cccc(C#N)c2)C1` (racemic) [I-142 e7] displayed an IC50 of 5 to 10 µM. In the case of `COc1cc2c(cc(C(=O)NC3(c4ccc(C(=O)O)cc4Cl)COC3)n2C)c(Cl)c1F` [I-44 e76], the IC50 in test [2] lay within 0.001 to 1 µM.

`Cn1c(C(=O)NC2(c3ccc(C(=O)O)cc3)CCCOC2)cc2c(Cl)c(Cl)ccc21` (racemic) [I-123 e23] displayed an IC50 in test [2] of 0.001 to 1 µM. In test [1], `CC(=O)NS(=O)(=O)N1CCC(NC(=O)c2cc3c(Cl)c(Cl)ccc3n2C)(c2cccc(CO)c2)CC1` [I-149 e12] showed an IC50 of 5 to 10 µM. In turn, `COc1ccc2c(cc(C(=O)NC3(c4ccc(CC(=O)O)cc4)COC3)n2C)c1Cl` [I-103 e39] showed an IC50 in test [2] of 0.001 to 1 µM.

Turning to `Cn1c(C(=O)NC2(c3ccc(C(C)(C)C(=O)O)cc3F)CCOC2)cc2c(Cl)c(Cl)ccc21` (racemic) [I-54 e79], the IC50 in test [2] lay within 0.001 to 1 µM.

For `COc1cc2c(cc(C(=O)NC3(c4ccc(CC(=O)O)cc4F)COC3)n2C)c(Cl)c1F` [I-61 e47], the IC50 in test [2] lay within 0.001 to 1 µM. In test [2], `COc1ccc2c(cc(C(=O)NC3(c4ccc(C(C)C(=O)O)cc4)CCOC3)n2C)c1Cl` (racemic) [I-64 e57] returned an IC50 of 0.001 to 1 µM.

Take `COc1cc2c(cc(C(=O)NC3(c4ccc(C(C(=O)O)C(C)C)cc4)CCOC3)n2C)c(Cl)c1Cl` (racemic) [I-20 e83]: in test [2], the IC50 fell in the range of 0.001 to 1 µM. The compound `COc1ccc2c(cc(C(=O)NC3(c4ccc(CC(=O)O)cc4Cl)COC3)n2C)c1Cl` [I-32 e64] displayed an IC50 in test [2] of 0.001 to 1 µM.

In the case of `CC(C)C(C(=O)O)c1ccc(C2(NC(=O)c3cc4c(Cl)c(Cl)ccc4n3C)CCOC2)cc1` (racemic) [I-19 e94], the IC50 in test [2] was 0.001 to 1 µM. In test [2], `Cn1c(C(=O)NC2(c3ccc(C(=O)O)cn3)CCOC2)cc2c(Cl)c(Cl)ccc21` (racemic) [I-74 e27] returned an IC50 of 0.001 to 1 µM. As to `COc1ccc2c(cc(C(=O)NC3(c4ccc(C(=O)O)cc4Cl)COC3)n2C)c1Cl` [I-65 e69], in test [2], the IC50 is 0.001 to 1 µM.

In turn, `Cn1c(C(=O)NC2(c3ccc(C(CC4CC4)C(=O)O)cc3)COC2)cc2c(Cl)c(Cl)ccc21` (racemic) [I-3 e124] gave an IC50 in test [2] of 0.001 to 1 µM. In the case of `Cn1c(C(=O)NC2(c3ccc(C(C)(C)C(=O)O)cc3)COC2)cc2c(Cl)c(Cl)ccc21` [I-36 e107], the IC50 in test [2] fell in the range of 0.001 to 1 µM. Take `CC(=O)NS(=O)(=O)N1CCC(NC(=O)c2cc3c(Cl)c(Cl)ccc3n2C)(c2ccc(C(=O)O)cc2)CC1` [I-144 e11]: the IC50 in test [1] was in the range of 0.001 to 1 µM. As to `COc1cc2c(cc(C(=O)NC3(c4ccc(C(=O)O)cc4F)COC3)n2C)c(Cl)c1Cl` [I-76 e42], the IC50 in test [2] is 0.001 to 1 µM. Same read-out and setting: in the case of `CN(C)CCOc1cc2c(cc(C(=O)NC3(c4ccc(C(=O)O)cc4)CCOC3)n2C)c(Cl)c1Cl` (racemic) [I-97 e102] it was 0.001 to 1 µM.

For `CC(=O)Nc1cccc(C2(NC(=O)c3cc4c(Cl)c(Cl)ccc4n3C)CCN(S(=O)(=O)NC(C)=O)CC2)c1` [I-153 e2], in test [1], the IC50 fell in the range of 5 to 10 µM. Regarding `Cn1c(C(=O)NC2(c3ccc(C(=O)O)cc3Cl)CCOC2)cc2c(Cl)c(Cl)ccc21` (racemic) [I-107 e24], the IC50 in test [2] was in the range of 0.001 to 1 µM.
